Target: T1, NPRL3 (Homo sapiens, UniProt Q12980)
T1 sequence (Q12980 1-569): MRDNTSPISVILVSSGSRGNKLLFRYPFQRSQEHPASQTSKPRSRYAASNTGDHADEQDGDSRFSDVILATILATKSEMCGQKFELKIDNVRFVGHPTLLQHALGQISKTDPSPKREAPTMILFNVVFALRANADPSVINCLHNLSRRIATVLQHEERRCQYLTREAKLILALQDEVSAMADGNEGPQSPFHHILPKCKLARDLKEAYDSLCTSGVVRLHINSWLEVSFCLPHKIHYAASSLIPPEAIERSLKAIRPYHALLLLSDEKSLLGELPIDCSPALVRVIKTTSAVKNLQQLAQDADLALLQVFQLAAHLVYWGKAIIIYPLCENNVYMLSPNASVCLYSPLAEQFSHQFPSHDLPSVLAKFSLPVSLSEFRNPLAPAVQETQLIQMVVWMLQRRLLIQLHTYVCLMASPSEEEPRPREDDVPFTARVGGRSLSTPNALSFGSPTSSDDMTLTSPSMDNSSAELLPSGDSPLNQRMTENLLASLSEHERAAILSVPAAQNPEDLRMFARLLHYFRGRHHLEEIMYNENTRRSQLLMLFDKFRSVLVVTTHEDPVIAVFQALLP
Experiment: SPR (Biacore T200, immobilized recombinant NPRL3, steady-state […] fit); supported by DARTS in A549L6 lysate
Assay type: binding

- Kd: 11.8 µM
SMILES: O=c1[nH]nc2c3c(cccc13)N=C(CN1Cc3ccccc3C1)N2 [E7449]
